One test concerns the target TBK1 (Homo sapiens (Human), UniProt Q9UHD2). The test is described as follows: TBK Biochemical Assay. How it is done: Example 106: TBK Biochemical Assay Test compounds were transferred into Labcyte polypropylene 384 well plates ([…]-25) and diluted to 3 mM using DMSO. 3 mM test compounds were dispensed using Labcyte ECHO dose response module into Greiner 784075 plates (columns 3-12 and 13-22, 10 point 1:4) so that high concentration was 30 uM final. 100 uM of a reference compound (1 uM final high concentration). Backfilling was performed if necessary so that all wells contain 1% DMSO final: add 75 nl DMSO/well into columns 1, 2 and 24 using Labcyte Echo. add 75 nl 1.0 mM staurosporine/well into column 23 using Labcyte Echo (10 uM final) add 4.5 ul enzyme/well using multidrop dispenser add 3 ul substrate/well using multidrop dispenser incubate at 25° C. in Heidolph incubator for 90 min. add 7.5 ul 2× stop buffer using multidrop dispenser read on labchip ez reader II using TBK1.job Raw data files were opened in the Caliper LabChip Reviewer program (Version 3.0.265.0 SP2) and peak assignments were adjusted to reflect “substrate first” with the software's post-run analysis options. A spline-fit baseline was applied using the software's analysis algorithm.

For the next test, the target named is IKKe (Homo sapiens (Human), UniProt Q14164). Kind of test: IKKe Biochemical Assay. How it is done:
IKKe Biochemical Assay Test compounds were transferred into Labcyte polypropylene 384 well plates ([…]-25) and diluted to 3 mM using DMSO. 3 mM test compounds were dispensed using Labcyte ECHO dose response module into Greiner 784075 plates (columns 3-12 and 13-22, 10 point 1:4) so that high concentration was 30 uM final. 100 uM of a reference compound (1 uM final high concentration). Backfilling was performed if necessary so that all wells contain 1% DMSO final: add 75 nl DMSO/well into columns 1, 2 and 24 using Labcyte Echo. add 75 nl 1.0 mM staurosporine/well into column 23 using Labcyte Echo (10 uM final) add 4.5 ul enzyme/well using multidrop dispenser add 3 ul substrate/well using multidrop dispenser incubate at 25° C. for 90 min. add 7.5 ul 2× stop buffer read on labchip ez reader II using IKKε. job Raw data files were opened in the Caliper LabChip Reviewer program (Version 3.0.265.0 SP2) and peak assignments were adjusted to reflect “substrate first” with the software's post-run analysis options. A spline-fit baseline was applied using the software's analysis algorithm.

Molecules are shown by their SMILES. pIC50: −log10 of the molar value.

Sequence of IKKe (Q14164 whole entry, species assumed): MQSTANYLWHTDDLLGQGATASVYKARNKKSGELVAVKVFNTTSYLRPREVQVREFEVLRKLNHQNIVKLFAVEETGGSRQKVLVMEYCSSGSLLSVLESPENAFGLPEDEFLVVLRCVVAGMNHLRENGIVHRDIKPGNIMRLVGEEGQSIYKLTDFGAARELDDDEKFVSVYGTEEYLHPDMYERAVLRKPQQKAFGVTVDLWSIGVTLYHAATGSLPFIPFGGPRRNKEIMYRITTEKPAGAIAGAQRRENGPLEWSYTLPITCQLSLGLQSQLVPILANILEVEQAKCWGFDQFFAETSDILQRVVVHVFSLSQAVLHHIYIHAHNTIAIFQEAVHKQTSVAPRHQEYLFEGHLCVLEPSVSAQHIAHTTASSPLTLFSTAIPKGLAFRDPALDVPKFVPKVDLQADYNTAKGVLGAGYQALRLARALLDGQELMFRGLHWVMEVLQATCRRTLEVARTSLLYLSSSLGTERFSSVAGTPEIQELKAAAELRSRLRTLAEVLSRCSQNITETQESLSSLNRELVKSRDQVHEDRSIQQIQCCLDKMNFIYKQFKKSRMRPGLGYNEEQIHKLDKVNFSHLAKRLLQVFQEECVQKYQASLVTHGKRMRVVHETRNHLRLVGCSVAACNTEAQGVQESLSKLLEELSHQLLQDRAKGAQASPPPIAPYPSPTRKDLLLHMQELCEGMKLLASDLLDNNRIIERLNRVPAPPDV
Sequence of TBK1 (Q9UHD2 whole entry, species assumed): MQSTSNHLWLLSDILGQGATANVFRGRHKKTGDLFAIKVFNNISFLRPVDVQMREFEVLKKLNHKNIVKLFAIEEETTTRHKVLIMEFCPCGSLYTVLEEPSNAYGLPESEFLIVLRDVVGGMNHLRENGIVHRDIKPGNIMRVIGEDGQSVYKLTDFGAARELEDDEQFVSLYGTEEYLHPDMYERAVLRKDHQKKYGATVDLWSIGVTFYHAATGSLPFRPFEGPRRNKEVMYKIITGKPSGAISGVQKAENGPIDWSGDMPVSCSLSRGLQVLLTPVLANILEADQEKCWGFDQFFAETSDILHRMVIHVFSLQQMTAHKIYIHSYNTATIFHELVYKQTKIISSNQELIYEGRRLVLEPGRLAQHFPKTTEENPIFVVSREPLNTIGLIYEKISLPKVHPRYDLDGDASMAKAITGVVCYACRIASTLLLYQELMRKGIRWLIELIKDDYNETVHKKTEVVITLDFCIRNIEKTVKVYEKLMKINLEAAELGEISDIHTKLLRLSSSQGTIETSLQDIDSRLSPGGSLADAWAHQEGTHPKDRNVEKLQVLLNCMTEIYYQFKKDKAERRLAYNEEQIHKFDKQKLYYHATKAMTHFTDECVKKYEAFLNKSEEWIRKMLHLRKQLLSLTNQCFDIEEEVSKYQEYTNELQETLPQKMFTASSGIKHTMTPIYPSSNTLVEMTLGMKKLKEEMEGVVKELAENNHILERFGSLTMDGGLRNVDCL

Regarding `COc1nc(Nc2cc(-c3cnc(OC4CCOCC4)c(C#N)c3)ncn2)ccc1N1CCN(C)CC1` [Example 23, 5-(6-[[6-methoxy-5-(4-methylpiperazin-1-yl)pyridin-2-yl]amino]pyrimidin-4-yl)-2-(oxan-4-yloxy)pyridine-3-carbonitrile], the pIC50 against TBK1 and against IKKe was more than 7.00 in each case.
In the case of `COc1nc(Nc2cc(-c3cc(C#N)c(OC4CCOCC4)cn3)ncn2)ccc1C1CCN(C)CC1` [Example 24, 2-(6-[[6-methoxy-5-(1-methylpiperidin-4-yl)pyridin-2-yl]amino]pyrimidin-4-yl)-5-(oxan-4-yloxy)pyridine-4-carbonitrile], the negative logarithm of the IC50 (pIC50) against TBK1 and against IKKe was more than 7.00 each time.
For the compound `COc1nc(Nc2cc(-c3ccc(OC4CCOCC4)c(C#N)n3)ncn2)ccc1C1CCN(C)CC1` [Example 25, 6-(6-[[6-methoxy-5-(1-methylpiperidin-4-yl)pyridin-2-yl]amino]pyrimidin-4-yl)-3-(oxan-4-yloxy)pyridine-2-carbonitrile], the pIC50 against TBK1 and against IKKe was 5.30 to 6.00 in each case.
As to `COc1nc(Nc2cc(-c3cc(C#N)c(OC4CCOCC4)cn3)ncn2)ccc1C(=O)N(C)C` [Example 26, 6-([6-[4-cyano-5-(oxan-4-yloxy)pyridin-2-yl]pyrimidin-4-yl]amino)-2-methoxy-N,N-dimethylpyridine-3-carboxamide], the pIC50 at TBK1 and on IKKe was more than 7.00 throughout.
For the compound `COc1nc(Nc2cc(-c3ccc(OC4CCOCC4)c(C#N)c3)ncn2)ccc1C1CCN(CC(F)(F)F)CC1` [Example 27, 5-[6-([6-methoxy-5-[1-(2,2,2-trifluoroethyl)piperidin-4-yl]pyridin-2-yl]amino)pyrimidin-4-yl]-2-(oxan-4-yloxy)benzonitrile], the negative logarithm of the IC50 (pIC50) against TBK1 and against IKKe was 6.00 to 7.00 in each case.
Regarding `COc1nc(Nc2cc(-c3ccc(OC4CCOCC4)c(C#N)c3)ncn2)ccc1C1CCN(CC(F)F)CC1` [Example 28, 5-[6-([5-[1-(2,2-difluoroethyl)piperidin-4-yl]-6-methoxypyridin-2-yl]amino)pyrimidin-4-yl]-2-(oxan-4-yloxy)benzonitrile], the pIC50 against TBK1 and at IKKe was more than 7.00 throughout.
In the case of `CN1CCN(c2ccc(Nc3cc(-c4ccc(OC5CCOCC5)c(C#N)c4)ncn3)nc2)CC1` [Example 29, 5-(6-[[5-(4-methylpiperazin-1-yl)pyridin-2-yl]amino]pyrimidin-4-yl)-2-(oxan-4-yloxy)benzonitrile], the pIC50 against TBK1 and against IKKe was more than 7.00 each time.
Turning to `CN(C)C(=O)c1ccc(Nc2cc(-c3ccc(OC4CCOCC4)c(C#N)c3)ncn2)nc1` [Example 30, 6-([6-[3-cyano-4-(oxan-4-yloxy)phenyl]pyrimidin-4-yl]amino)-N,N-dimethylpyridine-3-carboxamide], the pIC50 at TBK1 and against IKKe was more than 7.00 throughout.
With `COc1cc(Nc2cc(-c3ccc(OC4CCOCC4)c(C#N)c3)ncn2)ncc1C(=O)N(C)C` [Example 31, 6-([6-[3-cyano-4-(oxan-4-yloxy)phenyl]pyrimidin-4-yl]amino)-4-methoxy-N,N-dimethylpyridine-3-carboxamide], the pIC50 on TBK1 and on IKKe was more than 7.00 in each case.
`COc1cc(Nc2cc(-c3ccc(OC4CCOCC4)c(C#N)c3)ncn2)cnc1C(=O)N(C)C` [Example 32, 5-([6-[3-cyano-4-(oxan-4-yloxy)phenyl]pyrimidin-4-yl]amino)-3-methoxy-N,N-dimethylpyridine-2-carboxamide]: the pIC50 on TBK1 and at IKKe was 5.30 to 6.00 throughout.
In the case of `COc1cc(Nc2cc(-c3ccc(OC4CCOCC4)c(C#N)c3)ncn2)ncc1N1CCN(C)CC1` [Example 33, 5-(6-[[4-methoxy-5-(4-methylpiperazin-1-yl)pyridin-2-yl]amino]pyrimidin-4-yl)-2-(oxan-4-yloxy)benzonitrile], the pIC50 at TBK1 and against IKKe was more than 7.00 each time.
For `COc1cc(Nc2cc(-c3ccc(OC4CCOCC4)c(C#N)c3)ncn2)cnc1N1CCN(C)CC1` [Example 34, 5-(6-[[5-methoxy-6-(4-methylpiperazin-1-yl)pyridin-3-yl]amino]pyrimidin-4-yl)-2-(oxan-4-yloxy)benzonitrile], the pIC50 against TBK1 and against IKKe was 6.00 to 7.00 throughout.
For the compound `COc1cc(Nc2cc(-c3ccc(OC4CCOCC4)c(C#N)c3)ncn2)cnc1C1CCN(C)CC1` [Example 35, 5-(6-[[5-methoxy-6-(1-methylpiperidin-4-yl)pyridin-3-yl]amino]pyrimidin-4-yl)-2-(oxan-4-yloxy)benzonitrile], the pIC50 against TBK1 and on IKKe was 6.00 to 7.00 throughout.
With `COc1cc(Nc2cc(-c3ccc(OC4CCOCC4)c(C#N)c3)ncn2)ncc1C1CCN(C)CC1` [Example 36, 5-(6-[[4-methoxy-5-(1-methylpiperidin-4-yl)pyridin-2-yl]amino]pyrimidin-4-yl)-2-(oxan-4-yloxy)benzonitrile], the pIC50 on TBK1 and against IKKe was more than 7.00 throughout.
`COc1nc(Nc2cc(-c3ccc(OC4CN(C)C4)c(C#N)c3)ncn2)ccc1C(=O)N(C)C` [Example 37, 6-[(6-[3-cyano-4-[(1-methylazetidin-3-yl)oxy]phenyl]pyrimidin-4-yl)amino]-2-methoxy-N,N-dimethylpyridine-3-carboxamide]: the pIC50 against TBK1 and against IKKe was 6.00 to 7.00 each time.
As for `COc1nc(Nc2cc(-c3ccc(OC4CN(C)C4)c(C#N)c3)ncn2)ccc1N1CCN(C)CC1` [Example 38, 5-(6-[[6-methoxy-5-(4-methylpiperazin-1-yl)pyridin-2-yl]amino]pyrimidin-4-yl)-2-[(1-methylazetidin-3-yl)oxy]benzonitrile], the pIC50 against TBK1 and on IKKe was more than 7.00 throughout.
For `COc1nc(Nc2cc(-c3ccc(OC4CCN(C)C4)c(C#N)c3)ncn2)ccc1C(=O)N(C)C` (stereo not shown) [Example 39, 6-[(6-[3-cyano-4-[(1-methylpyrrolidin-3-yl)oxy]phenyl]pyrimidin-4-yl)amino]-2-methoxy-N,N-dimethylpyridine-3-carboxamide], the pIC50 against TBK1 and against IKKe was 6.00 to 7.00 throughout.
On to `CN1CCN(c2ccc(Nc3cc(-c4ccc(OC5CCN(C)C5)c(C#N)c4)ncn3)nc2)CC1` (stereo not shown) [Example 40, 5-(6-[[5-(4-methylpiperazin-1-yl)pyridin-2-yl]amino]pyrimidin-4-yl)-2-[(1-methylpyrrolidin-3-yl)oxy]benzonitrile], for which the negative-log IC50 (pIC50) on TBK1 and on IKKe was 6.00 to 7.00 each time.
Take `COc1nc(Nc2cc(-c3ccc(OC4CCN(C)CC4)c(C#N)c3)ncn2)ccc1C(=O)N(C)C` [Example 41, 6-[(6-[3-cyano-4-[(1-methylpiperidin-4-yl)oxy]phenyl]pyrimidin-4-yl)amino]-2-methoxy-N,N-dimethylpyridine-3-carboxamide]: the pIC50 on TBK1 and against IKKe was 5.30 to 6.00 in each case.
In the case of `COc1nc(Nc2cc(-c3ccc(OC4CCN(C(=O)CO)CC4)c(C#N)c3)ncn2)ccc1C(=O)N(C)C` [Example 42, 6-[[6-(3-cyano-4-[[1-(2-hydroxyacetyl)piperidin-4-yl]oxy]phenyl)pyrimidin-4-yl]amino]-2-methoxy-N,N-dimethylpyridine-3-carboxamide], the pIC50 against TBK1 and on IKKe was more than 7.00 each time.
Consider `COc1nc(Nc2cc(-c3ccc(OC4CCN(C(=O)c5cnco5)CC4)c(C#N)c3)ncn2)ccc1C(=O)N(C)C` [Example 43, 6-([6-[3-cyano-4-([1-[(1,3-oxazol-5-yl)carbonyl]piperidin-4-yl]oxy)phenyl]pyrimidin-4-yl]amino)-2-methoxy-N,N-dimethylpyridine-3-carboxamide], for which the pIC50 on TBK1 and against IKKe was more than 7.00 in each case.
Turning to `COc1nc(Nc2cc(-c3ccc(OC4CCN(C(=O)c5cocn5)CC4)c(C#N)c3)ncn2)ccc1C(=O)N(C)C` [Example 44, 6-([6-[3-cyano-4-([1-[(1,3-oxazol-4-yl)carbonyl]piperidin-4-yl]oxy)phenyl]pyrimidin-4-yl]amino)-2-methoxy-N,N-dimethylpyridine-3-carboxamide], the negative logarithm of the IC50 (pIC50) against TBK1 and against IKKe was more than 7.00 throughout.
For the compound `COc1nc(Nc2cc(-c3ccc(OC4CCN(C(=O)c5n[nH]c(C)n5)CC4)c(C#N)c3)ncn2)ccc1C(=O)N(C)C` [Example 45, 6-([6-[3-cyano-4-([1-[(5-methyl-1H-1,2,4-triazol-3-yl)carbonyl]piperidin-4-yl]oxy)phenyl]pyrimidin-4-yl]amino)-2-methoxy-N,N-dimethylpyridine-3-carboxamide], the negative logarithm of the IC50 (pIC50) against TBK1 and against IKKe was more than 7.00 each time.

In general, pIC50 refers to −log10 of the IC50, conventionally taken in molar units. Lower therefore signals a large IC50.

For the origin of these results see patent US11440899B2, “Pyrimidine TBK/IKKe inhibitor compounds and uses thereof” (Merck Patent GmbH, priority 2017, dated 2022).
